How the values were obtained:
Assay type in all cases: cell-based
[1] = tested on: Trypanosoma b. brucei Squib 427; experiment: In vitro anti-Trypanosoma brucei brucei activity; settings: read-out: T. bruc. IC50
Description: In Vitro Anti-Trypanosoma brucei brucei Activity:
After incubation in a humidified atmosphere (37° C., 5% CO2) for 72 h, resazurin was added for another 24 h and parasite growth was assessed fluorimetrically (λex 550 nm, λem 590 nm). […] Suramin was included as reference drug.

[2] = tested on: T. rhodesiense (strain STIB-900); experiment: In vitro anti-Trypanosoma brucei rhodesiense activity; settings: read-out: T. rhod. IC50
Description: In Vitro Anti-Trypanosoma brucei rhodesiense Activity
T. rhodesiense (strain STIB-900) was maintained in HMI-9-medium, supplemented with 10% heat-inactivated FBS. Assays were performed in 96-well microtiter plates, each well containing 10 μL of the extract dilution together with 190 μL of the parasite suspension (2×10^4 parasites/mL). After incubation in a humidified atmosphere (37° C., 5% CO2) for 72 h, resazurin was added for another 6 h and parasite growth was assessed fluorimetrically (λex 550 nm, λem 590 nm). […] Suramin was included as reference drug.

[3] = target: Trypanosoma cruzi, Tulahuen CL2, β galactosidase strain; experiment: In vitro anti-Trypanosoma cruzi activity; settings: read-out: T. cruz. IC50
Description: In Vitro Anti-Trypanosoma cruzi Activity
All cultures and assays were conducted under a humidified atmosphere (37° C., 5% CO2). […] The change in color was measured spectrophotometrically at 540 nm after 4 h at 37° C. […] Benznidazole was included as reference drug.

[4] = tested on: Leishmania infantum MHOM/MA (BE)/67; experiment: In vitro anti-Leishmania infantum activity; settings: read-out: L. inf. IC50
Description: In Vitro Anti-Leishmania infantum Activity
Leishmania infantum MHOM/MA (BE)/67 was maintained in the golden hamster and spleen amastigotes were collected for preparing infection inocula. Primary peritoneal mouse macrophages were used as host cells and collected 48 h after peritoneal stimulation with a 2% potato starch suspension. […] After incubation for 120 h in a humidified atmosphere (37° C., 5% CO2), total parasite burdens were microscopically assessed after Giemsa staining. The results were expressed as % reduction in parasite burden compared to untreated control wells and IC50 values were calculated. The extracts were tested using five fourfold dilutions starting with 64 μg/mL.

P. falciparum = experiment: In vitro anti-Plasmodium falciparum activity; settings: read-out: Pf-K1 IC50
Description: In Vitro Anti-Plasmodium falciparum Activity
All cultures and assays were conducted under a humidified atmosphere (37° C., 4% CO2, 3% O2 and 93% N2) with the assay being an adaptation of the procedure described by Desjardins et al. (12). Assays were performed in 96-well microtiter plates, each well containing 10 μL of the watery extract dilutions together with 190 μL of the malaria parasite inoculum (1% parasitemia, 2% hematocrit). After incubation for 72 h at 37° C., the plates were frozen and stored at −20° C. Upon thawing, 20 μL of each well was transferred into another plate together with 100 μL Malstat® reagent and 20 μL of a 1/1 mixture of PES (phenazine ethosulphate, 2 mg/mL) and NBT (Nitro Blue Tetrazolium Grade III, 0.1 mg/ml). […] The results were expressed as % reduction in parasitemia compared to control wells. The extracts were tested using five 4-fold dilutions starting with 64 μg/mL. Chloroquine was included as reference drug.

[5] = tested on: Human lung fibroblast MRC-5SV2 cells; experiment: Cytotoxicity assay on MRC-5SV2 cells (resazurin)
Description: Assays were performed in 96-well microtiter plates, each well containing 1×10^4 cells. […] After incubation for 72 h in a humidified atmosphere (37° C., 5% CO2) and addition of resazurin, the cell viability was assessed fluorimetrically (λex 550 nm, λem 590 nm). The results were expressed as % reduction in cell growth/viability compared to untreated control wells and IC50 values were determined. Tamoxifen was included as reference drug.

HIV-1 BaL = experiment: TZM-bl assay, anti-HIV-1 activity; settings: read-out: EC50 (50% effective concentration), anti-HIV-1 activity; TZM-bl cells
Description: The JC53-BL cell line, also known as the TZM-bl cell line (NIH AIDS Research and Reference Reagent Program, Germantown, USA), was used for the evaluation of anti-HIV activity. […] The resulting cell suspension was washed with an equivalent amount of TZM-bl medium and subsequently seeded in a T75 culture flask (Greiner Bio-One, Germany) at 10^6 cells in 20 mL medium.
The antiviral activity of the newly designed compounds was measured by pre-incubating ten thousand TZM-bl cells (at 10^5 cells/mL in culture medium supplemented with 30 μg/mL DEAE dextran) in a 96-well plate for 30 minutes at 37° C., 5% CO2 in the presence or absence of serial dilutions of the respective compound. Subsequently, 200 TCID50 of HIV-1 BaL was added to each well and cultures were incubated for 48 hours before quantifying luciferase activity, using a TriStar LB941 luminometer (Berthold Technologies GmbH & Co. KG, Bad Wildbad, Germany). Each condition was evaluated in triplicate wells and in at least two independent experiments. The antiviral activity of the compound was expressed as the percentage of viral inhibition compared to the untreated controls and subsequently plotted against the compound concentration.

TZM-bl cells = experiment: WST-1 cytotoxicity assay; settings: read-out: CC50 (50% cytotoxic concentration)
Text: The Water Soluble Tetrazolium-1 (WST-1) Cell Proliferation Assay is a colorimetric assay for the measurement of cell proliferation and viability. The assay is based on the cleavage of the tetrazolium salt WST-1 (4-[3-(4-iodophenyl)-2-(4-nitrophenyl)-2H-5-tetrazolio]-1,3-benzene disulfonate) to a formazan dye by a complex cellular mechanism. This bioreduction is largely dependent on the glycolytic production of NAD(P)H in viable cells. Therefore, the amount of formazan dye formed correlates directly to the number of viable cells in the culture, and can be quantified by measuring the absorbance at 450 nm in a multiwell plate reader. The greater the number of viable cells, the greater the amount of formazan dye produced following the addition of WST-1. Cytotoxicity of each compound was evaluated using this WST-1 viability assay, according to the manufacturer's instructions (Roche, Vilvoorde, Belgium).
Briefly, ten thousand TZM-bl cells were seeded in a 96-well plate and cultured for 2 days in the presence of a serial dilution of compound. After this 48 h exposure, Cell Proliferation Reagent, WST-1, was added and absorbance at 450 nm was quantified after 90 min using a microplate reader (BioRad, Tokio, Japan). Each compound was tested in three replicate wells and in at least two independent experiments.

**Q.** With `Cc1cc(C)c(Nc2nc(Nc3ccc(C#N)cc3)nc(Nc3ccc(Nc4nc(Nc5ccc(C#N)cc5)nc(Nc5c(C)cc(C)cc5C)n4)cc3)n2)c(C)c1` [T12, 4,4′-((6,6′-(1,4-phenylenebis(azanediyl))bis(4-(mesitylamino)-1,3,5-triazine-6,2-diyl))bis(azanediyl))dibenzonitrile] as the molecule, how does the IC50 [1] read?
**A.** 530 nM

**Q.** And the IC50 [2]?
**A.** 20 nM

**Q.** What about the IC50 [3] of the same molecule?
**A.** > 64000 nM

**Q.** What about the IC50 [4] of the same molecule?
**A.** > 64000 nM

**Q.** And the IC50 (P. falciparum)?
**A.** > 64000 nM

**Q.** And the “cytotoxicity in comparison with monomer I5” value [5]?
**A.** no cytotoxicity

**Q.** And the IC50 ([5]; human cell line MRC5)?
**A.** > 64000 nM

**Q.** What about the EC50 (HIV-1 BaL) of the same molecule?
**A.** 167 nM

**Q.** What about the CC50 (TZM-bl cells) of the same molecule?
**A.** > 100000 nM
